Assay: Screening profile of desired properties (growth inhibition, MDR, cytotoxicity, mouse serum stability, mitotic block reversibility, xenografts)
Conditions: properties (i)-(vii)
Procedure: In certain embodiments, compounds of the invention were tested for in vitro and in vivo activity. Screening methods included standard in vitro cell growth inhibition assays using a panel of human cancer cell lines, a U937 (ATCC accession number CRL 1593) mitotic block reversibility assay, mouse serum stability assay, MDR assay, and cytotoxicity assay. In certain other emdodiments, compounds of the invention were evaluated in tumor xenograft in vivo growth inhibition assays.

Question: Which “desired properties (growth inhibition IC50, resistance ratio, cytotoxicity in non-dividing cells, mouse serum stability, reversibility ratio, tumor regression, T/C)” value does the source give for `C/C(=C\[C@H](C(C)C)N(C)C(=O)[C@@H](NC(=O)[C@H]1CCCCN1C(C)C(C)C)C(C)(C)C)C(=O)O` (single isomer, unassigned) [ER-808662] here?
Answer: exhibiting desired properties

Question: Which “desired properties (growth inhibition IC50, resistance ratio, cytotoxicity in non-dividing cells, mouse serum stability, reversibility ratio, tumor regression, T/C)” value does the source give for `CN[C@H](C(=O)N[C@H](C(=O)N(C)[C@H](/C=C(\C)C(=O)N1CCC[C@H]1C(=O)OC)C(C)C)C(C)(C)C)C(C)(C)c1ccccc1` [ER-805736] here?
Answer: exhibiting desired properties

Question: With `CN[C@H](C(=O)N[C@H](C(=O)N(C)[C@H](/C=C(\C)C(=O)O)C(C)C)C(C)(C)C)C(C)(C)c1ccc(OCc2ccccc2)cc1` [ER-805913] as the compound, how does the “desired properties (growth inhibition IC50, resistance ratio, cytotoxicity in non-dividing cells, mouse serum stability, reversibility ratio, tumor regression, T/C)” value read?
Answer: exhibiting desired properties

Question: For `CN[C@H](C(=O)N[C@H](C(=O)N(C)[C@H](CN(C)CC(=O)N1CCC[C@H]1C(=O)OC)C(C)C)C(C)(C)C)C(C)(C)c1ccccc1` [ER-806925], which “desired properties (growth inhibition IC50, resistance ratio, cytotoxicity in non-dividing cells, mouse serum stability, reversibility ratio, tumor regression, T/C)” value is on record?
Answer: exhibiting desired properties

Question: Which “desired properties (growth inhibition IC50, resistance ratio, cytotoxicity in non-dividing cells, mouse serum stability, reversibility ratio, tumor regression, T/C)” value does the source give for `C/C(=C\[C@H](C(C)C)N(C)C(=O)[C@@H](NC(=O)[C@H]1CCCCN1C)C(C)(C)C)C(=O)O` [ER-807102] here?
Answer: exhibiting desired properties

Question: Which “desired properties (growth inhibition IC50, resistance ratio, cytotoxicity in non-dividing cells, mouse serum stability, reversibility ratio, tumor regression, T/C)” value does the source give for `CN[C@H](C(=O)N[C@H](C(=O)N(C)[C@H](CN1CCC[C@H]1C(=O)N1CCC[C@H]1C(N)=O)C(C)C)C(C)(C)C)C(C)(C)c1ccccc1` [ER-807328] here?
Answer: exhibiting desired properties

Question: For `CCC(CC)(NC)C(=O)N[C@H](C(=O)N(C)[C@H](/C=C(\C)C(=O)O)C(C)C)C(C)(C)C` [ER-807850], which “desired properties (growth inhibition IC50, resistance ratio, cytotoxicity in non-dividing cells, mouse serum stability, reversibility ratio, tumor regression, T/C)” value is on record?
Answer: exhibiting desired properties

Question: For `CC(C)OC(=O)[C@@H]1CCCN1C(=O)[C@@H]1CCCN1C[C@H](C(C)C)N(C)C(=O)[C@@H](NC(=O)C1CCCCN1C)C(C)(C)C` (some centres unmarked) [ER-807904], which “desired properties (growth inhibition IC50, resistance ratio, cytotoxicity in non-dividing cells, mouse serum stability, reversibility ratio, tumor regression, T/C)” value is on record?
Answer: exhibiting desired properties

Question: For `C/C(=C\[C@H](C(C)C)N(C)C(=O)[C@@H](NC(=O)[C@H]1CCCCN1C(C)C)C(C)(C)C)C(=O)O` [ER-807974], which “desired properties (growth inhibition IC50, resistance ratio, cytotoxicity in non-dividing cells, mouse serum stability, reversibility ratio, tumor regression, T/C)” value is on record?
Answer: exhibiting desired properties

Question: With `CCC(C)N1CCCC[C@@H]1C(=O)N[C@H](C(=O)N(C)[C@H](/C=C(\C)C(=O)O)C(C)C)C(C)(C)C` (some centres unmarked) [ER-808368] as the compound, how does the “desired properties (growth inhibition IC50, resistance ratio, cytotoxicity in non-dividing cells, mouse serum stability, reversibility ratio, tumor regression, T/C)” value read?
Answer: exhibiting desired properties

Question: For `CCC(C)N1CCCC[C@@H]1C(=O)N[C@H](C(=O)N(C)[C@H](/C=C(\C)C(=O)O)C(C)C)C(C)C` (some centres unmarked) [ER-808824], which “desired properties (growth inhibition IC50, resistance ratio, cytotoxicity in non-dividing cells, mouse serum stability, reversibility ratio, tumor regression, T/C)” value is on record?
Answer: exhibiting desired properties

— patent publication US7585976B2, “Hemiasterlin derivatives and uses thereof” (priority 2002, dated 2009)
